Article PMC7237442, “Drosophila taste neurons as an agonist-screening platform for P2X receptors” (Scientific Reports, 2020)
Where a chain is given by its changes, count along the chain named.

Experiments:
[1] = biological target: T1, rat P2X2 (Rattus norvegicus, UniProt P49653, T184I); assay: action potential recording from Drosophila taste neurons, tested at […]; assay type: cell-based
T1 construct: gene P2rx2; T184I rP2X2::GFP
T1 sequence (P49653 1-472 T184I): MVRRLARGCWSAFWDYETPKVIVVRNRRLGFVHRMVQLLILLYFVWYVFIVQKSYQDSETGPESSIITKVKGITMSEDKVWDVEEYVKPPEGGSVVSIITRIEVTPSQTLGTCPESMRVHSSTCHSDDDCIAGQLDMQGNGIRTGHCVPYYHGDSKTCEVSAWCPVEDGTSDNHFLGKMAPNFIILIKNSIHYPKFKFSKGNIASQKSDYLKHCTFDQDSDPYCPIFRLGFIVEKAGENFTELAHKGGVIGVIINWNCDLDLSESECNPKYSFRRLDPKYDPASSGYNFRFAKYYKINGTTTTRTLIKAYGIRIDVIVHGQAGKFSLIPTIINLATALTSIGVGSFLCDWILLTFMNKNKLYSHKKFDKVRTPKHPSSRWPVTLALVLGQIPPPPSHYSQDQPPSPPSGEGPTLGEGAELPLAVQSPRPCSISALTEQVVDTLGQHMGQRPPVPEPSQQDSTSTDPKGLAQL

[2] = biological target: T2, rat P2X2 (Rattus norvegicus, UniProt P49653); assay: as above; assay type: cell-based
T2 construct: gene P2rx2; rat P2X2 with C-terminal mCherry fusion
T2 sequence (P49653 1-472): T1 sequence (P49653 1-472 T184I) with I184T

[3] = biological target: T3, human P2X2 (Homo sapiens, UniProt Q9UBL9); assay: action potential recording from Drosophila taste neurons, […] ATP; assay type: cell-based
T3 construct: gene P2RX2; human P2X2 variant A with C-terminal mCherry fusion tag
T3 sequence (Q9UBL9 1-471): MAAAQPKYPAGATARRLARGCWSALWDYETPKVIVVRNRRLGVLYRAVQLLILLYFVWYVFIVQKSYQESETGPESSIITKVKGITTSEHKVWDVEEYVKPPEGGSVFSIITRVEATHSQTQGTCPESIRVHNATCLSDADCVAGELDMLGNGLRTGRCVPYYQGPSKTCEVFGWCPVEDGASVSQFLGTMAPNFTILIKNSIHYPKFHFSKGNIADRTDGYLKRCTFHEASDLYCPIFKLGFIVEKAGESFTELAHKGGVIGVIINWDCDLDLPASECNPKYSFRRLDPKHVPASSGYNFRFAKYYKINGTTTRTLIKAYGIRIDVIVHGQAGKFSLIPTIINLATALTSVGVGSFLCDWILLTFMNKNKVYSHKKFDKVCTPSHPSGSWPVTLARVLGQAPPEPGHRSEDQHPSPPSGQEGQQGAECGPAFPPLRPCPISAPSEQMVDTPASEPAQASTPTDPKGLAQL

[4] = biological target: T1, rat P2X2; assay: action potential recording from Drosophila taste neurons expressing the mutant
[5] = biological target: T2, rat P2X2; assay: action potential recording from Drosophila taste neurons expressing the receptor; also whole-cell voltage clamp in HEK […] cells
[6] = biological target: T2, rat P2X2; assay: action potential recording from Drosophila taste neurons, tested at […]; partial agonist; assay type: cell-based
[7] = biological target: T2, rat P2X2; assay: action potential recording from Drosophila taste neurons; confirmed by whole-cell voltage clamp in HEK […] cells at […]

Compound: Nc1ncnc2c1ncn2[C@@H]1O[C@H](CO[P@](=O)(O)O[P@](=O)(O)O[P@@](=O)(O)S)[C@@H](O)[C@H]1O [ATPγS]
- action potential recording from Drosophila taste neurons, tested at 100 μM [1]: flies expressing rat P2X2^T184I and found that ATPγS, ATPαS and 2F-ATP elicited responses similar to ATP
- action potential recording from Drosophila taste neurons, tested at 100 μM [2]: ATPγS and ATPαS have previously been shown to act as agonists ... both were also effective agonists in the Drosophila system

Compound: Nc1ncnc2c1ncn2[C@@H]1O[C@H](COP(=O)(O)OP(=O)(O)OP(=O)(O)O)[C@@H](O)[C@H]1O [ATP]
- action potential recording from Drosophila taste neurons, 10 μM ATP [3]: The human P2X2 ortholog was also tested in Drosophila taste neurons ... and it responded to ATP in a similar fashion
- EC50 [4]: 145 µM
- EC50 [5]: 8.7 µM

Compound: Nc1nc(O)nc2c1ncn2[C@@H]1O[C@H](COP(=O)(O)OP(=O)(O)OP(=O)(O)O)[C@@H](O)[C@H]1O [2OH-ATP]
- action potential recording from Drosophila taste neurons, tested at 100 μM; part [6]: several modifications at this position show full (2F-ATP) or partial (2-hydroxy-ATP) agonist activity

Compound: Nc1nc(F)nc2c1ncn2[C@@H]1O[C@H](COP(=O)(O)OP(=O)(O)OP(=O)(O)O)[C@@H](O)[C@H]1O [2F-ATP]
- action potential recording from Drosophila taste neurons, tested at 100 μM [1]: flies expressing rat P2X2^T184I and found that ATPγS, ATPαS and 2F-ATP elicited responses similar to ATP
- EC50 [7]: 17.2 µM

Compound: Nc1ncnc2c1ncn2[C@@H]1O[C@H](COP(O)(=S)OP(=O)(O)OP(=O)(O)O)[C@@H](O)[C@H]1O (stereo partly drawn) [ATPαS]
- action potential recording from Drosophila taste neurons, tested at 100 μM [2]: Several adenosine nucleotides gave responses as large as ATP, including the previously identified agonists ATPγS and ATPαS
